Measured values taken from the NIST ThermoML archive (doi:10.1021/je5010643).

Assay: refractive index (Na D-line) (dimensionless); xn = mol fraction of the nth substance listed
Conditions: 101.32 kPa, Liquid, Standard Abbe refractometry

CC(C)C(=O)O [2-methylpropanoic acid] + C1COCCO1
refractive index
Conditions	x2 = 0	x2 = 0.1	x2 = 0.2	x2 = 0.3	x2 = 0.4	x2 = 0.5	x2 = 0.6	x2 = 0.7	x2 = 0.8	x2 = 0.9
295.15 K	1.3919	1.3955	1.3988	1.4021	1.4052	1.4082	1.411	1.4137	1.4161	1.4185
298.15 K	1.3907	1.3942	1.3974	1.4007	1.4038	1.4068	1.4096	1.4122	1.4146	1.4171
301.15 K	1.3895	1.3929	1.3961	1.3993	1.4024	1.4054	1.4082	1.4107	1.4132	1.4156
304.15 K	1.3883	1.3916	1.3948	1.3979	1.401	1.4039	1.4067	1.4093	1.4117	1.4141
307.15 K	1.3872	1.3904	1.3936	1.3967	1.3997	1.4026	1.4054	1.4079	1.4103	1.4127
310.15 K	1.386	1.3891	1.3923	1.3953	1.3983	1.4011	1.4038	1.4063	1.4087	1.4112
313.15 K	1.3849	1.3879	1.391	1.3941	1.397	1.3998	1.4025	1.4049	1.4073	1.4098
